Columns and labels:
tilapia IgM = assay: Serum antibody levels of tilapia after immunization with epitope peptides (ELISA); assay type: in vivo, Nile tilapia (Oreochromis niloticus); conditions: for immunogenicity (serum antibody titer) after single immunization: 20 µg peptide i.m. with Freund's adjuvant, 7-28 days; for immunogenicity (serum IgM antibody levels) after primary and booster immunization: 20 µg peptide i.m., booster after 14 days, 7-42 days
Source text: Epitope vaccines usually need to be modified with Freund’s adjuvant (Beyotime) before immunization. Briefly, for a single immunization, the epitope peptide is mixed with an equal dose of complete Freund’s adjuvant and then administered to tilapia. For booster immunization, an equal dose of incomplete Freund’s adjuvant is fused with the epitope peptide before vaccination. For the S1, S3, and S10 epitope vaccine immunization programs, healthy Oreochromis niloticus were divided into six groups (70 fish per group) and vaccinated with 20 µg of peptide vaccine by intramuscular injection. During the 1–4 week immunization period, we collected four fish serum samples weekly for immunological analysis.
In the immunization experiments based on the P30-designed vaccine, healthy Nile tilapia were divided into four groups (70 fish per group) and injected intramuscularly with 20 µg of peptide vaccine to complete the primary immunization. After 14 days, the same dose of vaccine was administered again to complete the booster immunization. Serum and tissue samples were collected from 4 fishes in each group weekly after the primary immunization, for a total of 6 weeks. Furthermore, a PBS control was incorporated into both immunization experiments, and the immunization process was conducted in accordance with the aforementioned methodology.
Serum antibody levels after immunization were determined by indirect ELISA. Specifically, serum samples were diluted appropriately, coated to enzyme-labeled plates, and incubated overnight at 4°C. After being washed three times with PBST buffer, each well was incubated with mouse anti-tilapia IgM mAb (1:5,000) at 37°C for 1 h. After washing, each well was incubated with HRP-conjugated goat anti-mouse IgG (1:5,500) for an additional hour. Color development was carried out as described above.

scFv1 [1] = assay: Western blot, binding of S3 epitope peptide and mutants to GST-scFv1; set-up: species or system Nile tilapia (Oreochromis niloticus); conditions: PVDF membrane with GST-scFv1 incubated with S3 proteins 37°C 2 h; 6×His tag antibody
Procedure: The PET-N-GST-scFv1 plasmid was constructed using seamless cloning technology (Vazyme), and the protein was obtained through a prokaryotic expression system. The scFv1 protein was purified using GST resin (Beyotime) and stored after lyophilization. Similarly, S3-WT, S3-MuT-^Y386^A, S3-MuT-^R393^A, S3-MuT-^L398^A, and S3-MuT were expressed in prokaryotes using the pET32a plasmid. In the Western blot experiment, after blocking, the PVDF membrane containing GST-scFv1 blots was incubated with each of the five S3 proteins at 37°C for 2 h. Subsequently, the anti-6×His tag mouse mAb was used as the primary antibody, and HRP-conjugated goat anti-mouse IgG was used as the secondary antibody. The ECL color development steps were performed as described above.

TiLV-positive IgM = assay: Indirect ELISA, affinity of synthetic peptides for TiLV-positive serum; assay type: binding, tilapia; conditions: peptides 0.1 to 100 μg/mL
Procedure: The indirect ELISA was used to determine the affinity of synthetic peptides for the scFv1 protein and TiLV-positive serum. For the affinity detection of scFv1, the synthetic peptides were diluted at different concentrations (0.01–100 μg/mL) and coated in a microplate. After blocking, scFv1 protein (50 µg/mL) was added and incubated for 2 h at 37°C. In order to reduce the interference of non-specific binding, 50 µg/mL of BSA protein was used as a control for the analysis of binding to the antigenic peptides. Subsequently, 100 µL of 6×His-tag mouse mAb was added to each well and incubated for 1 h, followed by the addition of 100 µL of HRP-conjugated goat anti-mouse IgG for another hour. The color development and OD measurements were performed as described previously. For the affinity detection of serum, 100 µL of positive serum (1:200) was added to each well. The primary antibody was then replaced with mouse anti-tilapia IgM mAb (Frdbio), while all other steps remained unchanged.

scFv1 [2] = assay: Yeast two-hybrid assay of epitope peptides with scFv1; assay type: cell-based, Nile tilapia (Oreochromis niloticus); conditions: pGBKT-scFv1 bait, pGADT-peptide; Y2Hgold; 96 h
Procedure: The pGBKT-scFv1 bait plasmid was transformed into Y2Hgold yeast competent cells (WEIDI) and cultured in SD-deficient medium (Beijing Zoman Biotechnology Co., Ltd.) to confirm the absence of self-activation. Subsequently, pGADT-P30, pGADT-S390F, and pGADT-G394K plasmids, along with the pGBKT-scFv1 bait plasmid, were co-transformed into Y2Hgold yeast competent cells. The cells were then cultured on LT-deficient SD and LTHA-deficient SD medium for 48–96 h to observe the expression of the reporter genes. Additionally, the pGADT-T plasmid was co-transformed with the pGBKT-53 and pGBKT-lam plasmids and cultured as positive and negative controls, respectively.

scFv1 [3] = assay: Co-immunoprecipitation of epitope peptides with scFv1 in HEK293T cells; assay type: cell-based, Nile tilapia (Oreochromis niloticus); conditions: for Co-IP with scFv1, His-tag system: His-tagged peptide and Flag-scFv1 co-transfected in HEK293T; for Co-IP with scFv1, GFP tag system: pEGFP-peptide and pCMV-Flag-scFv1 co-transfected in HEK293T, 48 h
Procedure: Protein samples were extracted following the co-transfection of HEK293T cells with plasmids containing P30, S390F, G394K, and scFv1 for 48 h, respectively. Subsequent Co-IP assays were performed using the kit (Beyotime) in accordance with the provided protocol. In brief, TBS-washed protein A + G magnetic beads were incubated with GFP-tagged IgG2a mAb (1:3,000, Proteintech) for 1 h at room temperature. Subsequently, the samples were incubated at 4°C overnight. Following the washing of the beads with cell lysates containing protease inhibitors, protein elution was completed with SDS-PAGE loading buffer (Solarbio) for protein blotting. In the Western blot analysis, the GFP-tagged IgG2a mAb (1:3,000) and the Flag-tagged mouse mAb (1:2,000, Beyotime) were employed to identify the IP and input protein samples, respectively. Furthermore, all samples were characterized with a reference protein antibody (β-actin) as a standard control. Enzyme-labeled secondary antibodies consisted of HRP-conjugated goat anti-mouse IgG (1:4,000). The bands were visualized using the ECL Plus hypersensitive luminescent solution (Solarbio) and photographed with a chemiluminescence program. In addition, the His tag system was also used to verify the interaction between epitope peptides, such as P30 and scFv1. Plasmids encoding P30, S390F, and G394K fused with His tags and the plasmid encoding scFv1 fused with a Flag tag were co-transfected into HEK293T cells, respectively. The His-tag monoclonal antibody (1:500, Proteintech) was bound to A + G magnetic beads and used to detect the interaction, and all other operation steps were performed as described above.

scFv1 [4] = assay: Cellular co-localization of epitope peptides with scFv1 in HEK293T cells; assay type: cell-based, Nile tilapia (Oreochromis niloticus); conditions: pEGFP-peptide and pCMV-DsRed-scFv1 in HEK293T, 48 h, confocal
Procedure: The pEGFP-P30, S390F, and G394K plasmids, along with the pCMV-C-DsRed-scFv1 plasmid, were co-transfected into HEK293T cells and cultured for 48 h. Afterward, the cells were fixed with 4% paraformaldehyde, permeabilized, and stained with DPAI (Beyotime), which contains an anti-fluorescence quencher. The expression and co-localization of proteins in cells were observed using confocal fluorescence microscopy.

[5] = biological target: T1, S390F epitope peptide (P30 with S390F), synthetic (tilapia lake virus (TiLV), S390F (stands in the printed letters)); assay: SPR; conditions: both partners purified
T1 construct: source: synthetic peptide (solid phase, SynthBio)
T1 peptide: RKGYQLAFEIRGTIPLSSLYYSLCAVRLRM

[6] = biological target: T2, S3-WT epitope peptide (S3 385–400) (tilapia lake virus (TiLV)); assay: ELISA; conditions: both partners purified
T2 construct: source: synthetic peptide (solid phase, SynthBio)
T2 peptide: GYQLASEIRGTIPLSS

[7] = biological target: T3, S1-WT epitope peptide (S1 231–250) (tilapia lake virus (TiLV)); assay: ELISA; conditions: both partners purified
T3 construct: source: synthetic peptide (solid phase, SynthBio)
T3 peptide: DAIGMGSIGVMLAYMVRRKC

[8] = biological target: T4, S1-Mut epitope peptide (S1 231–250, alanine mutant) (tilapia lake virus (TiLV)); assay: ELISA; conditions: both partners purified
T4 construct: source: synthetic peptide (solid phase, SynthBio)
T4 peptide: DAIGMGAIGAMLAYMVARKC

[9] = biological target: T5, S10-Mut epitope peptide (S10 55–66, alanine mutant) (tilapia lake virus (TiLV)); assay: ELISA; conditions: both partners purified
T5 construct: source: synthetic peptide (solid phase, SynthBio)
T5 peptide: NIEAGAAVALEM

[10] = biological target: T6, S10-WT epitope peptide (S10 55–66) (tilapia lake virus (TiLV)); assay: ELISA; conditions: both partners purified
T6 construct: source: synthetic peptide (solid phase, SynthBio)
T6 peptide: NIEWGDEVDLEM

DAIGMGAIGAMLAYMVARKC [S1MuT]
immunogenicity (serum antibody titer) after single immunization (tilapia IgM): lower antibody stimulation level

DAIGMGSIGVMLAYMVRRKC [S1WT]
immunogenicity (serum antibody titer) after single immunization (tilapia IgM): robust immune responses

GAQLASEIAGTIPASS [S3MuT]
binding to GST-scFv1 by Western blot (scFv1 [1]): did not show the protein
immunogenicity (serum antibody titer) after single immunization (tilapia IgM): lower antibody stimulation level

NIEAGAAVALEM [S10MuT]
immunogenicity (serum antibody titer) after single immunization (tilapia IgM): lower antibody stimulation level

NIEWGDEVDLEM [S10WT]
immunogenicity (serum antibody titer) after single immunization (tilapia IgM): robust immune responses

RKGYQLASEIRGFIPLSSLYYSLCAVRLRM [T395F]
affinity to TiLV-specific positive serum (TiLV-positive IgM): did not show improved affinity compared to P30
immunogenicity (serum IgM antibody levels) after primary and booster immunization (tilapia IgM): failed to show significantly improved immunogenicity

RKGYQLASEIRGTIPLSSLYYSLCAVRLRM [P30]
yeast two-hybrid growth on LTHA-deficient SD medium (scFv1 [2]): exhibited plaque growth
Co-IP with scFv1, His-tag system (scFv1 [3]): showed interactions with scFv1
Co-IP with scFv1, GFP tag system (scFv1 [3]): able to bind to the antibody
co-localization with scFv1 in cells (scFv1 [4]): co-localized with the antibody

RKGYQLASEIRGTIPLSSLYYYLCAVRLRM [S404Y]
affinity to TiLV-specific positive serum (TiLV-positive IgM): did not show improved affinity compared to P30
immunogenicity (serum IgM antibody levels) after primary and booster immunization (tilapia IgM): failed to show significantly improved immunogenicity

RKGYQLASEIRKTIPLSSLYYSLCAVRLRM [G394K]
yeast two-hybrid growth on LTHA-deficient SD medium (scFv1 [2]): did not exhibit any growth
Co-IP with scFv1, His-tag system (scFv1 [3]): did not
Co-IP with scFv1, GFP tag system (scFv1 [3]): negative in the Co-IP reaction
co-localization with scFv1 in cells (scFv1 [4]): failed to bind to the antibody

B1: scFv1, prokaryote-expressed (pET32a-scFv1) (scFv)
scFv: MSHRLTCAYSGFSSDIHAVWVRQAAGKGLEWIAYISDSSAYIYYSQSVRGRFTISRDNSRKQVYLQMNSLTTEDSAVYYCTREGSGFAFDYWGKGTGGGGSGGGGSGGGGSVTISATGSSNIGADLSWYLQKTGETPKLLIYKASTRSSGTPPRFSGSTSGSQYTLTISGVQAEDAGDYYCLGDHGGGALTFGGGTK
notes: also called antibody scFv1; source: E. coli BL21, prokaryotic expression (pET32a-scFv1); freeze-dried, dissolved in PBS
Kd [5]: 573 nM
binding result [6]: binds
binding result [7]: binds
binding result [8]: binds
binding result [9]: binds
binding result [10]: binds

B2: scFv1, expressed in CHO cells (pcDNA3.1-scFv1) (scFv)
scFv: MSHRLTCAYSGFSSDIHAVWVRQAAGKGLEWIAYISDSSAYIYYSQSVRGRFTISRDNSRKQVYLQMNSLTTEDSAVYYCTREGSGFAFDYWGKGTGGGGSGGGGSGGGGSVTISATGSSNIGADLSWYLQKTGETPKLLIYKASTRSSGTPPRFSGSTSGSQYTLTISGVQAEDAGDYYCLGDHGGGALTFGGGTK
notes: also called eukaryote-expressed scFv1; source: CHO cells, eukaryotic expression (pcDNA3.1-scFv1)
binding result [6]: binds
binding result [7]: binds
binding result [8]: binds
binding result [9]: binds
binding result [10]: binds

Source: PMC12724136, “Design of antibody structure-guided epitope vaccines in silico to induce potent immune responses against emerging viruses” (Journal of Virology, 2025)
